One data set concerns IGROV1 knockdown cells. As to the kind of experiment: Growth inhibition in IGROV1 FRα knockdown cells. It counts as cell-based, human. The note with it: up to 1000 nM drug.
Data set [1] deals with IGROV1 human EOC xenografts. The data set can be described thus: In vivo efficacy trial with IGROV1 EOC xenografts in SCID mice.
In a further data set the test system is IGROV1 EOC cells. The note with it: colony-forming assay; cited from earlier work.
Data set [2] relates to R1–11-FR2 HeLa cells expressing FRα. The data set can be described thus: Cell proliferation assay, FRα-expressing HeLa subline R1–11-FR2.
For data set [3], the system named is R1–11-PCFT4 HeLa cells expressing PCFT. The data set can be described thus: Cell proliferation assay, PCFT-expressing HeLa subline R1–11-PCFT4.

In the case of `Nc1nc2[nH]c(CCCCc3ccc(C(=O)N[C@@H](CCC(=O)O)C(=O)O)c(F)c3)cc2c(=O)[nH]1` [Compound 8, (4-(4-(2-Amino-4-oxo-4,7-dihydro-3H-pyrrolo[2,3-d]pyrimidin-6-yl)butyl)-2-fluorobenzoyl)-L-glutamic Acid], the “growth inhibition upon FRα knockdown” value in the data set on IGROV1 knockdown cells was “complete loss of growth inhibition”. The same measure, in the same setting: the entry for `Nc1nc2[nH]c(CCCCc3cnc(C(=O)N[C@@H](CCC(=O)O)C(=O)O)c(F)c3)cc2c(=O)[nH]1` [Compound 10, (5-(4-(2-Amino-4-oxo-4,7-dihydro-3H-pyrrolo[2,3-d]pyrimidin-6-yl)butyl)-3-fluoropicolinoyl)-L-glutamic Acid] is “complete loss of growth inhibition”. `Nc1nc2[nH]c(CCCc3ccc(C(=O)N[C@@H](CCC(=O)O)C(=O)O)s3)cc2c(=O)[nH]1` [Compound 1] showed a tumor burden range in data set [1] (day 60, folate-deficient diet, iv, 11 Q4dX4 95 (mg/kg)/inj, 1 Q4dX3 32 (mg/kg)/inj) of 0 to 196 mg. For the same molecule, the “acute or long-term toxicities” value in data set [1] (equitoxic dose levels, SCID mice) is recorded as “no acute or long-term toxicities other than completely reversible loss of weight”. In data set [1] (standard folate-replete diet), the “antitumor activity on standard (high folate) diet” value is reported as “ablated” and the “weight loss or adverse symptoms on standard (high folate) diet” value is reported as “No weight losses or other adverse symptoms were observed”. The cell killing result with IGROV1 EOC cells is “greater than 99%”. Consider `Nc1nc2[nH]c(CCCc3csc(C(=O)N[C@@H](CCC(=O)O)C(=O)O)c3F)cc2c(=O)[nH]1` [Compound 12, (4-(3-(2-Amino-4-oxo-4,7-dihydro-3H-pyrrolo[2,3-d]pyrimidin-6-yl)propyl)-3-fluorothiophene-2-carbonyl)-L-glutamic Acid], for which, in data set [2] (R1–11-FR2 HeLa cells), the “fold reduced IC50 of fluorinated versus nonfluorinated counterpart” value is listed as 2–3 fold. Also, in data set [3] (HeLa sublines), the “selectivity for PCFT versus RFC (IC50 R1–11-RFC2/IC50 R1–11-PCFT)” value is ~ 3. Take `Nc1nc2[nH]c(CCCc3ccc(C(=O)N[C@@H](CCC(=O)O)C(=O)O)c(F)c3)cc2c(=O)[nH]1` [Compound 9, (4-(3-(2-Amino-4-oxo-4,7-dihydro-3H-pyrrolo[2,3-d]pyrimidin-6-yl)propyl)-2-fluorobenzoyl)-L-glutamic Acid]: the “fold IC50 below that for compound 1” value in data set [2] (R1–11-FR2 cells) came out at 6 fold; in data set [3] (R1–11-PCFT cells), 10 fold. `Nc1nc2[nH]c(CCCCc3ccc(C(=O)N[C@@H](CCC(=O)O)C(=O)O)cc3)cc2c(=O)[nH]1` [Compound 2]: in the data set on IGROV1 knockdown cells, the “growth inhibition upon FRα knockdown” value is reported as “complete loss of growth inhibition”.

For the molecule `Nc1nc2[nH]c(CCCCc3csc(C(=O)N[C@@H](CCC(=O)O)C(=O)O)c3)cc2c(=O)[nH]1` [Compound 5], the “growth inhibition upon FRα knockdown” value with IGROV1 knockdown cells is reported as “complete loss of growth inhibition”.

The values above are taken from PMC6097718 (Journal of medicinal chemistry, 2018).
